Laboratory results published in patent US6632421B2, “Deodorant composition comprising a water-soluble zinc salt as odor-absorbing agent” (L'Oreal, priority 1996, dated 2003).

Assay: odour absorption test with respect to natural sweat (sniff test on flasks)
Parameters: species or system human
Description: An odour absorption test was carried out with respect to natural sweat.
The axillary sweat from a number of people was thus removed in a sauna and combined to produce a sweat sample. In order to obtain the characteristic nauseating smell of sweat, before introducing the active substance, this sweat sample was incubated for 14 hours at a temperature of 37° C. 1 ml of the incubated sweat sample was introduced into each flask of active substance to be tested and into a control flask (without active substance). The active substance: 5.5 mg of Zn ion in the form of zinc pidolate, zinc chloride, zinc gluconate, zinc lactate, zinc phenolsulphonate and zinc sulphate, was then introduced respectively into each of the flasks of active substance to be tested.
The flasks were then incubated for a second time for 24 hours at a temperature of 37° C. and then for a third time for 3 days at room temperature.
Eight judges then smelled (“sniff test”) each of these flasks and graded the intensity of the smell on a scale from 0 to 4.

Compound: Oc1cc(Cl)ccc1Oc1ccc(Cl)cc1Cl [triclosan, 5-chloro-2-(2,4-dichlorophenoxy)phenol]
- absorption effect on the smell of sweat (sample containing a bactericide, check that the test is truly an odour absorption test): no absorption effect

Compound: zinc pyrrolidonecarboxylate [zinc pidolate]
- intensity of the smell, grade on a scale from 0 to 4 (0=no smell, 4=strong smell) (5.5 mg of Zn ion in 1 ml incubated sweat, 24 hours at 37° C. then 3 days at room temperature, eight judges, control flask graded 4): best results
